According to US12102612B2, “Pharmaceutical composition comprising hydroquinone derivative for preventing or treating obesity or nonalcoholic steatohepatitis” (BIOTOXTECH CO., LTD., priority 2018, dated 2024):
Entries after “also recorded” stand apart in the source; their conditions may differ.

Assays:
[1] = test system: western diet NASH mouse models; conditions: cited from earlier work
[2] = test system: normal persons and nonalcoholic fatty liver patients; conditions: 10-25 mg per adult; cited from earlier work
[3] = test system: CD-1(ICR) mice; conditions: mouse, in vivo; cited from earlier work
[4] = test system: nonalcoholic fatty liver in mice; conditions: cited from earlier work
[5] = test system: mice; conditions: repeated for 13 weeks; cited from earlier work
[6] = test system: MCD diet-fed NASH model (8 weeks); experiment: Efficacy in NASH model fed with methionine and choline deficient (MCD) diet for 8 weeks; type: in vivo, male C57BL/6 mice; conditions: MCD diet 8 weeks; for alleviative effect on NASH / inhibitory activity against NASH: compared to the negative control, RSV and DDB complex 200 mg/kg
Description: A methionine and choline deficient (MCD) diet-fed model, in which steatosis has been induced as a result of the supply of a diet deficient in methionine and choline, which each play an important role in beta oxidation and very low-density lipoprotein, (VLDL) synthesis, is widely used as a model for observing an effect of alleviating NASH because it suffers from histopathologically serious lobular inflammation.
An MCD diet (RESEARCH DIETS, Product No: A02082002B) was fed 7-week-old male C57BL/6 mice for 4 weeks to induce nonalcoholic fatty liver and then for an additional 4 weeks during which the hydroquinone derivative compound 2,3,5-trimethylhydroquinone-1-hexylether (compound 1) according to the present invention and the comparative control drugs were orally administered to the mice at the specific doses repeatedly as indicated for test groups G3-G8 in Table 2. Alleviative effects on NASH were assessed by clinicopathological and histopathological examinations.
The normal group was fed with a normal diet (RESEARCH DIETS, Product No: A02082003B), but not the MCD diet. To the negative control, only the excipient 0.5% methyl cellulose (MC) aqueous solution was administered after the MCD diet was fed thereto. […] For resveratrol and the DDB hepatoprotectant, the daily dose was set forth to be 200 mg/kg.
(§1) The liver tissues were resected from mice fed with MCD diet for 8 weeks and prepared into hematoxylin-eosin (H&E) stained slides, as in the histopathological examination method of Test Example 1. Based on the criteria of Table 1, changes in 1) steatosis, 2) lesions such as hepatic lobular inflammation, etc. (lobular inflammation), and 3) ballooning degeneration of hepatocytes (ballooning) were analyzed and the scores were summed to afford NAFLD activity scores for evaluating therapeutic effects on NASH.

[7] = test system: MCD diet-fed NASH model (12 weeks); experiment: Efficacy in NASH model fed with MCD diet for 12 weeks; type: in vivo, male C57BL/6 mice; conditions: MCD diet 12 weeks
Description: The duration of feeding MCD diet was extended to a total of 12 weeks to increase the induction level of NASH. To this end, male C57BL/6 mice at 7 weeks of age were fed with a methionine and choline-deficient diet for 8 weeks to induce nonalcoholic fatty liver and then subjected to the same repeat administration program at the same doses for 4 weeks as in Table 2.

[8] = test system: FFC diet-fed non-alcoholic steatohepatitis model; experiment: Efficacy in fat-, fructose- and cholesterol-rich (FFC) diet-fed non-alcoholic steatohepatitis model; type: in vivo, male C57BL/6 mice
Description: FFC diet (fat-, fructose-, and cholesterol-rich diet) (RESEARCH DIETS, Product No.: D12079B) was fed to male C57BL/6 mice 6-7 weeks old for 16 weeks to induce nonalcoholic fatty liver. Only animals with a NAFLD activity score (NAS) of 3.2 or more were selected by biopsy. Two weeks after biopsy, the animals were divided into three test groups including a negative control injected with a 0.5% methyl cellulose (MC) aqueous solution only (FFC control) and compound 1 groups injected with a solution of compound 1 (2,3,5-trimethylhydroquinone-1-hexylether compound, 30 mg/kg and 200 mg/kg) in a 0.5% MC aqueous solution. Compound 1 was administered for a total of 2 months and evaluated for alleviative efficacy for NASH by histopathological examination.
For histopathological examination, the mice were sacrificed and subjected to hepatectomy. The liver tissues thus obtained were prepared into hematoxylin-eosin (H&E) stained slides. In brief, the resected liver tissues were fixed in 4% paraformaldehyde at 4° C. for 24 hours, washed with flowing water, embedded into paraffin, and sectioned into blocks 3-4 μm thick. The sectioned tissue was attached to a coated slide, de-paraffinized with xylene, and rehydrated with graded alcohols (99%, 95%, 90%, 80%, and 70% ethanol (EtOH)) before histological staining. The sectioned tissues were stained with hematoxylin for 5 min and washed with flowing water for 5 min, following by destaining with 1% HCl alcohol and ammonia. Subsequently, the tissues were washed with flowing water for 10 min, counterstained with eosin for 1 min, and dehydrated in the reverse order of the hydration before mounting.
The H&E-stained slides were histopathologically assessed under a microscope and scored according to the NAFLD activity score (NAS) criteria given in Table 1. NAFLD activity scores are expressed as a sum of assessment scores for changes in 1) steatosis, 2) lesions such as hepatic lobular inflammation, etc. (lobular inflammation), and 3) ballooning degeneration of hepatocytes (ballooning) and are widely used for evaluating the severity of NASH.

[9] = test system: high-fat diet-fed obesity and NASH model; experiment: Efficacy in obesity and NASH model fed with high-fat diet (HFD); type: in vivo, male C57BL/6 mice
Experimental: High-fat diet with 60 kcal % (RESEARCH DIETS, Product No: D12492) was fed to 7-week-old male C57BL/6 mice for 16 weeks to induce nonalcoholic fatty liver, followed by repeatedly administering test substances, along with the high-fat diet, via an oral route for 9 weeks from weeks 17 to 25. Alleviative effects on NASH were assessed by clinicopathological and histopathological examinations.
The test groups included a normal control which was not fed with HFD, but with a normal diet (10 kcal % fat diet, RESEARCH DIETS, Product No: D12450B), a negative control which was fed with HFD and then with the excipient 0.5% methyl cellulose (MC) aqueous solution alone, compound 1 (2,3,5-trimethylhydroquinone-1-hexylether)-administered groups (30, 100, 200 mg/kg), and comparative controls (obeticholic acid 30 mg/kg, pioglitazone 10 mg/kg, and DDB hepatoprotectant 200 mg/kg).
During repeatedly oral administration of the test substances for 9 weeks as in the assay method of (1), the mice were observed and recorded for weight gain, food intake, and general symptoms.
as §1, with “Liver” for “The liver”, “from HFD-fed” for “from”, “mice” for “mice fed with MCD diet for 8 weeks”

[10] = test system: high-fat diet-induced insulin resistance; experiment: Insulin resistance assay in high-fat diet-fed mice; type: in vivo, male C57BL/6 mice; conditions: week 7 of administration, vs negative control and other drug controls
Experimental: An insulin resistance assay was conducted on week 7 of administration of compound 1 to examine the effect of compound 1 on the insulin resistance induced by high-fat diet. For the insulin resistance assay, the mice were fast for 4 hours and intraperitoneally injected with insulin (0.7 IU/kg), followed by measuring blood glucose levels every 30 min. Insulin resistance was digitized for quantitative comparison. In this regard, while pre-insulin blood levels were set forth to be baselines, areas under the curves of reduced blood glucose levels were digitized into iAUC values (FIG. 14). Here, a smaller iAUC value means higher insulin resistance and a larger iAUC value means higher insulin sensitivity.

[11] = test system: rats; experiment: Single-dose oral administration toxicity assay for rats; type: in vivo; conditions: single oral dose as high as 2000 mg/kg
[12] = test system: rats; experiment: Toxicity assay of repetitive oral administration for 13 weeks; type: in vivo; conditions: repeated for 13 weeks
[13] = test system: beagle dogs; experiment: Maximum tolerance dose in beagle dogs; type: in vivo
[14] = test system: adult; experiment: Clinical trial phase 1 (single and 14-day repetitive administration); type: in vivo, human; conditions: for abnormal responses (such as dyslipidemia) after repetitive administration: up to 1,000 mg per adult for 14 days

## CC[C@H]1[C@@H](O)[C@@H]2[C@H](CC[C@]3(C)[C@@H]([C@H](C)CCC(=O)O)CC[C@@H]23)[C@@]2(C)CC[C@@H](O)C[C@@H]12 [Obeticholic acid, obeticholic acid]
[1]
  dose that aggravated NAFLD (liver fibrosis worsen, ALT level increased): ≥ 40 mg/kg
[2]
  total cholesterol and LDL cholesterol levels (side effect): increasing total cholesterol and LDL cholesterol levels
[3]
  dose causing serious side effects such as death of animals: ≥ 175 mg/kg

## CCc1ccc(CCOc2ccc(CC3SC(=O)NC3=O)cc2)nc1 (stereo not shown) [Pioglitazone, pioglitazone]
[4]
  dose that aggravates fatty liver: 25 mg/kg
[5]
  dose at which subject death occurred: ≥ 320 mg/kg
  dose causing cardiac adverse effects: ≥ 100 mg/kg

## Oc1ccc(C=Cc2cc(O)cc(O)c2)cc1 [Resveratrol, resveratrol, reference compound]
[6]
  alleviative effect on NASH / inhibitory activity against NASH: did not exhibit an alleviative effect on NASH
[7]; 200 mg/kg, compared to the negative control
  alleviative effect on NASH: did not exhibit an alleviative effect on NASH

## CCCCCCOc1cc(C)c(O)c(C)c1C [compound 1, 2,3,5-trimethylhydroquinone-1-hexylether]
[8]; 30 and 200 mg/kg for 2 months, dose-dependent, FIG. 2
  fatty liver: alleviated
[8]; 30 and 200 mg/kg for 2 months, dose-dependent, FIG. 3
  NAFLD activity scores: alleviated
[8]; compound 1 30 and 200 mg/kg for 2 months, vs FFC control, FIG. 1
  lobular inflammatory cellular infiltration (lobular inflammation): decrease lobular inflammatory cellular infiltration
[6]; 200 mg/kg, vs negative control and comparative control groups, FIG. 6
  ALT level: remarkably reduced
[6]
  alleviative effect on NASH / inhibitory activity against NASH: excellent inhibitory activity against NASH
[6]; oral 30 and 200 mg/kg for 4 weeks, vs MCD control, FIG. 4
  effect of reducing lobular inflammatory cellular infiltration: remarkable
[6]; FIG. 5
  NAFLD activity scores: reduce
[6]; PGZ 10 mg/kg, OCA 30 mg/kg
  anti-inflammatory efficacy compared to pioglitazone (PGZ) and obeticholic acid (OCA): excellent anti-inflammatory efficacy
[7]; oral 30 and 200 mg/kg for 4 weeks, vs MCD control, dose-dependent, FIG. 7
  lobular inflammatory cellular infiltration: reduced lobular inflammatory cellular infiltration
[7]; vs MCD control, dose-dependent, FIG. 8
  NAFLD activity scores: lowered NAFLD activity scores
[7]; PGZ 10 mg/kg, OCA 30 mg/kg
  anti-inflammatory effect compared to pioglitazone (PGZ) and obeticholic acid (OCA): excellent anti-inflammatory effect
[9]; 200 mg/kg, compared to the other drug groups
  suppressive effect on lobular inflammation: remarkably highly suppressive effect
[9]; 30, 100, 200 mg/kg, vs HFD control, dose-dependent
  fatty liver: alleviated
[9]; 30, 100, 200 mg/kg, vs HFD control, dose-dependent, FIG. 15
  hepatic lobular cellular infiltration: alleviated
[9]; HFD model, compared to the negative control, FIG. 19(A)
  blood levels of cholesterol: reduced
[9]; HFD model, compared to the negative control, FIG. 19(B)
  blood levels of triglyceride: reduced
[9]; HFD model, relative to normal levels, FIG. 17
  ALT: recovered
[9]; HFD model, relative to normal levels, FIG. 18
  AST: recovered
[9]; HFD model, FIG. 17
  ALT levels vs the other drug controls: further reduced
[9]; HFD model, FIG. 18
  AST levels vs the other drug controls: further reduced
[9]; autopsy after 9 weeks oral administration, FIG. 11
  accumulation of visceral fats such as epididymal fats (epididymal fat weights): excellent effect of inhibiting the accumulation of visceral fats
[9]; compared to the other drugs, FIGS. 15 and 16
  therapeutic effects on NASH by histopathological examinations (lobular inflammation, NAFLD activity scores): excellent therapeutic effects on NASH
[9]; oral 30, 100, 200 mg/kg for 9 weeks, vs HFD control, FIG. 9
  weight gain increments resulting from the intake of high-fat diet: remarkably reduced
[10]; 4 h fast, insulin 0.7 IU/kg i.p., FIG. 13
  blood glucose level upon insulin administration: reduced in blood glucose level more fast
[10]; FIG. 14
  suppressive effect on high-fat diet-induced insulin resistance (iAUC values): higher suppressive effect on high-fat diet-induced insulin resistance
[11]
  mortality: did not cause mortality
[12]; dose as high as 500 mg/kg
  side effects such as death, weight loss, organ failure: did not invoke significant side effects; also recorded: no side effects such as death, weight loss, organ failure, etc. were detected
[12]; up to 500 mg/kg, FIG. 12
  changes in weight gain, food consumption, urological and serological examinations: No changes attributed to the administration of compound 1 were detected
[13]
  maximum tolerance dose: 2,000 mg/kg
[14]; single dose of up to 2,000 mg per adult
  abnormal responses after single dose: no abnormal responses were observed
[14]
  abnormal responses (such as dyslipidemia) after repetitive administration: no abnormal responses, such as dyslipidemia, were reported; also recorded: no abnormal responses were observed
[14]; listed as 2,3,5-trimethylhydroquinone-1-hexylether
  abnormal responses (such as dyslipidemia) after repetitive administration: no abnormal responses were observed
